The source of these data is patent publication US20240269230A1 (priority 2020, published 2024).

The conditions of series [1]: mouse, in vivo, ip.
The target in series [2] is T1, kOR (Mus musculus, UniProt P33534). In words: cell-based.
The subject of another series is EAE mouse model. The note with it: mice; oral administration; cited from earlier work.
The target in series [3] is T1, kOR. The class given is cell-based.
The target of series [4] is T1, kOR. Put plainly: biochemical. Type of series: binding.
Another series concerns the target hKOR (Homo sapiens, UniProt P41145). The note with it: cited from earlier work.
A further series relates to T-cell proliferation. The note with it: in vitro; IL-2-dependent mechanism; cited from earlier work.

Where “and” joins values, the source holds several entries; their conditions need not be identical. Identical values can stand only once. Bridge positions count the residues as written; N and C are the ends. Ends that are not written are not given here. Peptide text beside a SMILES is read from it.

T1 sequence (P33534 whole entry): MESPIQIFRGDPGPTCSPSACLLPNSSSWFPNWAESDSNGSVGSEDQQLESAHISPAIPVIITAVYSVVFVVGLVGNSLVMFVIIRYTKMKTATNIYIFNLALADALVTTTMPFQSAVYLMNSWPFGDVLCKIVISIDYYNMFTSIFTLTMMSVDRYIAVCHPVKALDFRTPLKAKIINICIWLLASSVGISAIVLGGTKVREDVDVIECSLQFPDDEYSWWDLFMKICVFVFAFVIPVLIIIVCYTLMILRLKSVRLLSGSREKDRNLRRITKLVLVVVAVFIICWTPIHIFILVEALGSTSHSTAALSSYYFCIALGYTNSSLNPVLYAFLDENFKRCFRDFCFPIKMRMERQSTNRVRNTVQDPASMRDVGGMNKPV
hKOR, sequence (P41145 whole entry): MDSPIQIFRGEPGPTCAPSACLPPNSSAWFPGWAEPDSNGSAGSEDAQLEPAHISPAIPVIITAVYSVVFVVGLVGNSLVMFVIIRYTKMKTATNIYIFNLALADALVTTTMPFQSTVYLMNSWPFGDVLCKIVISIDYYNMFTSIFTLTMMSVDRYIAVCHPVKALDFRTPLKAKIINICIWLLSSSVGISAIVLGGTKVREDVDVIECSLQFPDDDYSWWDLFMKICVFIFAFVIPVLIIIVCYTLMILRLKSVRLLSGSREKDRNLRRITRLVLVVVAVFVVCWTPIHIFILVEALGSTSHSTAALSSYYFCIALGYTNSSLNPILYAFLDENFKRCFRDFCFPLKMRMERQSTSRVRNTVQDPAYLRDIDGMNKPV

Consider `Cc1cc(-c2ccc(/N=N/c3ccc4c(S(=O)(=O)[O-])cc(S(=O)(=O)[O-])c(N)c4c3O)c(C)c2)ccc1/N=N/c1ccc2c(S(=O)(=O)[O-])cc(S(=O)(=O)[O-])c(N)c2c1O.[Na+].[Na+].[Na+].[Na+]` [EvansBlue dye, reference compound], for which, in series [1], the “Biodistribution: brain” value is on record as “strong signal” and the “Biodistribution: spine” value was “strong signal”.
On to `CC(C)C[C@@H]1NC(=O)CNC(=O)[C@H](CC(N)=O)NC(=O)[C@H](CCCNC(=N)N)NC(=O)[C@H]([C@@H](C)O)NC(=O)[C@@H]2CSSC[C@@H]3NC(=O)[C@H]([C@@H](C)O)NC(=O)CNC(=O)CNC(=O)[C@H](C(C)C)NC(=O)[C@@H]4CSSC[C@H](NC(=O)[C@H](CCCCN)NC(=O)[C@H](CSSC[C@H](NC(=O)[C@H](C(C)C)NC(=O)[C@@H]5CCCN5C1=O)C(=O)NCC(=O)N[C@@H](CCC(=O)O)C(=O)N[C@@H]([C@@H](C)O)C(=O)N4)NC(=O)CNC(=O)[C@@H]1CCCN1C(=O)[C@H]([C@@H](C)O)NC(=O)[C@H](CC(N)=O)NC3=O)C(=O)N[C@@H](CO)C(=O)N[C@@H](Cc1c[nH]c3ccccc13)C(=O)N1CCC[C@H]1C(=O)N[C@@H](C(C)C)C(=O)N2` [[T20K]-kalata B1] (cyclo(CGETCVGGTCNTPGCKCSWPVCTRNGLPV); disulfide 1-15, 5-17, 10-22 (inferred); ring closure inferred), for which, at kOR [2], a half-maximal response (EC50) required 17 µM, the “Effect on the efficacy of U50,488 (cAMP)” value is “only slightly affected the efficacy”, the “Effect on the efficacy of dynorphin A 1-13 (cAMP)” value is “increase in its efficacy” and the “Effect on the potency of dynorphin A 1-13 (cAMP)” value is listed as “does not affect the potency”. At kOR [2], the “Mode of action at the kOR” value is “full agonist” and the “Shift in the potency of U50,488 (cAMP)” value is reported as “nine-fold leftward shift in the potency”. For the same compound, the “Symptoms of EAE” value with EAE mouse model is “significant delay and diminished symptoms of EAE”. On kOR [3], the “Effect on the efficacy of U50,488 to recruit beta arrestin” value is recorded as “remarkable alleviation of the efficacy”, the “Effect on the potency of U50,488 to recruit beta arrestin” value is “not impinging on its potency” and the beta arrestin recruitment entry is recorded as “no recruitment of beta arrestin could be detected”. Also, at kOR [4], the “Effect on the affinity of dynorphin A 1-13” value is recorded as “only slightly affects the affinity”, the “Effect on tritiated diprenorphine binding” value is given as “negatively modulates tritiated diprenorphine” and the Ki is 2.7 µM. The “Binding to and activation of hKOR” value on hKOR is “bind to and activate hKOR”.
The compound `CC[C@H](C)[C@@H]1NC(=O)[C@H](C(C)C)NC(=O)[C@H]([C@@H](C)O)NC(=O)[C@H](CO)NC(=O)[C@H](Cc2ccccc2)NC(=O)[C@@H]2CSSC[C@@H]3NC(=O)[C@H](C(C)C)NC(=O)[C@H](CCCCN)NC(=O)[C@H](CC(N)=O)NC(=O)[C@H](CCCCN)NC(=O)[C@@H]4CSSC[C@H](NC(=O)[C@H](CO)NC(=O)[C@H](CCC(=O)O)NC(=O)CNC(=O)[C@H](CSSC[C@H](NC(=O)CNC1=O)C(=O)N[C@@H](CO)C(=O)N4)NC(=O)[C@@H]1CCCN1C(=O)[C@H]([C@@H](C)CC)NC(=O)[C@H](C(C)C)NC(=O)CNC(=O)[C@H](CC(N)=O)NC(=O)[C@H](CCCNC(=N)N)NC(=O)[C@H](Cc1ccc(O)cc1)NC3=O)C(=O)N[C@@H](C(C)C)C(=O)N[C@@H](Cc1ccccc1)C(=O)N[C@@H]([C@@H](C)CC)C(=O)N1CCC[C@H]1C(=O)N2` [caripe 10] (cyclo(CFSTVIGCSCKNKVCYRNGVIPCGESCVFIP); disulfide 1-15, 8-23, 10-27 (inferred); ring closure inferred) showed a Ki on kOR [4] of 1 µM.
As for “conjugated [T20K]-kalata B1: [T20K]-kalata B1 conjugated to VivoTag 680 XL Fluorochrome (GLPVCGETCVGGTCNTPGCKCSWPVCTRN; ends and bridges not checked; also: conjugated to VivoTag 680 XL fluorochrome (place not given here); UniProt P56254 89-117, looked up, variant T20K)”, in series [1], the “Biodistribution: brain” value is listed as “accumulated in the brain” and the “Biodistribution: spine” value is given as “also in the spine but to a far less extent”.
For dynorphin A 1-13 [reference compound], at kOR [2], the “Receptor activation cAMP Emax (%)” value was 113% and 104% and 119% and 134% and 137% and 96%.
For the compound “kalata B1: circular plant peptide (cyclotide), GLPVCGETCVGGTCNTPGCTCSWPVCTRN (cyclo(GLPVCGETCVGGTCNTPGCTCSWPVCTRN); ends not checked; also: three disulfide bonds (cystine knot), pairing not given here; listed as Oldenlandia affinis)”, the T-cell proliferation entry in the series on T-cell proliferation is “silence T-cell proliferation”.
For the compound “vitri cyclotide: novel cyclotide isolated from Viola tricolor, GDPIPCGETCFTGKCYSETIGCTCEWPICTKN (not fully specified (bridges); ends and bridges not checked; also: cyclic, type not given here)”, the “Binding of isolated vitri peptide to the kOR” value in the series with kOR [4] is recorded as “able to bind to the kOR”.

As a reminder, the EC50 is the concentration at which the effect is half-maximal. The low end stands for higher potency in that assay, the high end for lower potency in that assay. What is called Ki is a measure of affinity in units of concentration, obtained from inhibition or displacement. A high value points to a looser hold on the target.
